Assays:
sulphonamide antibodies [1] = experiment: Multi-sulphonamide competitive immunoassay, antibodies on APTES ceramic substrates with dihydrazide linker, with or without periodate activation; type: binding
Procedure: Multi-sulphonamide standards (200 µl) and a cocktail of sulphonamide horseradish peroxidase conjugates (100 µl) were added to the reaction wells containing the device as appropriate and incubated for 15 minutes at room temperature. The standards contained 5, 10, 50 and 100 ng/ml for each of the 12 sulphonamides.
Thereafter the multi-sulphonamide devices were washed with PBS/PEG buffer to remove excess reagents and 300 µl chemiluminescent substrate [luminol (1.4mM)/urea hydrogen peroxide (9.6mM)] per device was introduced. The devices were imaged using a CCD camera with an exposure time of up to 4 minutes. Standard curves were obtained for each of the 12 individual sulphonamides. Calibration curves for each of the 12 individual sulphonamides are represented graphically in Figure 15. The % B/Bo value plotted on the Y-axis represents the % […] of the zero standard RLU (Relative light unit) value caused by each individual sulphonamide standard (plotted on the X-axis as log10).
In a further example, ceramic substrates silanated with APTES were reacted with a dihydrazide linker. Sulphonamide antibodies were treated with sodium periodate to render them reactive towards the hydrazide linker. Control sulphonamide antibodies were simply dialysed against sodium acetate buffer pH 5.5. The RLU results are shown in Tables 4 (not treated) and 5 (treated by periodate method). […] The control antibodies (no periodate activation) gave very poor standard curves when compared to the covalently immobilised sulphonamide antibodies.

sulphonamide antibodies [2] = experiment: Multi-sulphonamide competitive immunoassay in microchannels, chemiluminescent CCD detection (Example 3); type: binding; conditions: microchannel device, 2 minutes incubation
Procedure: In contrast to Example 1, a multi-sulphonamide assay has also been conducted using microchannels. The device is illustrated in Figure 11. In this Example, the reagent addition reservoirs 21 are 2 mm x 2 mm, and 300 µm deep (vol. 1.2 µl), the channels 23 are each 5 mm long, 200 µm wide and 100 µm deep (vol. 100 nl), and the reservoir 24 is 1.9 mm x 8.6 mm, and 300 µm deep (vol. 4.9 µl).
The chemical modification of the surface was performed as described in Example 1. Antibody was added to each of the channels and incubated for 2 hours at 37°C. The substrates were then blocked and washed as for Example 1.
A multi-sulphonamide standard (200 µl) and sulphonamide horseradish pexoxidase conjugates (100 µl) were mixed. 1 µl of the resultant reagent was pipetted into each of the reservoirs supplying the antibody-coated channel for each sulphonamide. The standards contained 10 or 100 ng/ml of all the sulphonamides as appropriate.
The reagent flowed by capillary action. After incubation for 2 minutes, the substrate was washed 5 times with PBS/PEG and chemiluminescent reagent [luminol (1.4 mM)/urea hydrogen peroxide (9.6 mM)] was added.
The devices were imaged using a CCD camera with an exposure time of up to 4 minutes.

[3] = 10 ng/ml standard, antibodies treated by periodate method, covalently immobilised (Table 5)
[4] = 10 ng/ml standard, control antibodies not treated with periodate (Table 4)
[5] = 100 ng/ml standard, antibodies treated by periodate method, covalently immobilised (Table 5)
[6] = 100 ng/ml standard, control antibodies not treated with periodate (Table 4)

SMILES | % B/Bo (sulphonamide antibodies [1]; [3]) [%] | % B/Bo (sulphonamide antibodies [1]; [4]) [%] | % B/Bo (sulphonamide antibodies [1]; [5]) [%] | % B/Bo (sulphonamide antibodies [1]; [6]) [%] | % B/Bo (sulphonamide antibodies [2]; 10 ng/ml standard) [%] | % B/Bo (sulphonamide antibodies [2]; 100 ng/ml standard) [%]
Nc1ccc(S(=O)(=O)Nc2ccc(Cl)nn2)cc1 [Sulphachloropyridazine, sulphachloropyridazine] | 30 | 24 | 8 | – | – | –
COc1cc(NS(=O)(=O)c2ccc(N)cc2)nc(OC)n1 [Sulphadimethoxine, sulphadimethoxine] | 46 | – | 36 | 97 | – | –
COc1ncnc(NS(=O)(=O)c2ccc(N)cc2)c1OC [Sulphadoxine, sulphadoxine] | 31 | 51 | 20 | – | – | –
Cc1ccnc(NS(=O)(=O)c2ccc(N)cc2)n1 [Sulphamerazine, sulphamerazine] | 43 | 52 | 26 | 56 | 40 | 22
Cc1cc(C)nc(NS(=O)(=O)c2ccc(N)cc2)n1 [Sulphamethazine, sulphamethazine] | 77 | – | 61 | – | 14 | 7
Cc1nnc(NS(=O)(=O)c2ccc(N)cc2)s1 [Sulphamethizole, sulphamethizole] | 33 | 36 | 28 | – | – | –
COc1ccc(NS(=O)(=O)c2ccc(N)cc2)nn1 [Sulphamethoxypyridazine, sulphamethoxypyridazine] | 74 | 84 | 40 | – | 28 | 15
Nc1ccc(S(=O)(=O)Nc2cnc3ccccc3n2)cc1 [Sulphaquinoxaline, sulphaquinoxaline] | 58 | 79 | 53 | 93 | 56 | 24
Nc1ccc(S(=O)(=O)Nc2nccs2)cc1 [Sulphathiazole, sulphathiazole] | 32 | 28 | 16 | – | – | –
Cc1noc(NS(=O)(=O)c2ccc(N)cc2)c1C [Sulphisoxazole, sulphisoxazole] | 27 | 23 | 9 | – | – | –
